Measurements as given in ChEMBL document CHEMBL1201862, “PubChem BioAssay data set” (2004).
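1) Cells in 96-well plates. 2) Compound, 48 h, 5 concentrations. 3) Linear interpolation between surrounding doses. 4) Unreached endpoint = highest concentration. GI50 marks 50% less growth.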 The source made the active and inactive calls. No stated cut-off is given here; in the data, active = GI50 up to about 1.1 µM and inactive = higher.

What was measured:
Experiment in all cases: inhibition of tumour cell growth, NCI panel, 48 h
[1] = system: NCI-H522
[2] = system: A498
[3] = system: SK-MEL-28
[4] = system: SK-MEL-5
[5] = system: Malme-3M
[6] = system: LOX IMVI
[7] = system: DMS-273
[8] = system: SF-268
[9] = system: RXF 393
[10] = system: CCRF-CEM
[11] = system: OVCAR-5
[12] = system: HT-29
[13] = system: IGROV-1
[14] = system: RPMI-8226
[15] = system: UACC-62
[16] = system: SF-295
[17] = system: SW-620

| Compound | GI50 [1] | GI50 [2] | GI50 [3] | GI50 [4] | GI50 [5] | GI50 [6] | GI50 [7] | GI50 [8] | GI50 [9] | GI50 [10] | GI50 [11] | GI50 [12] | GI50 [13] | GI50 [14] | GI50 [15] | GI50 [16] | GI50 [17] |
| --- | --- | --- | --- | --- | --- | --- | --- | --- | --- | --- | --- | --- | --- | --- | --- | --- | --- |
| CCCCCCNC(=O)CCN(C(=O)O)S(=O)(=O)c1ccc(NC(=O)c2ccccc2)cc1 | > 20 µM (inactive) | > 100 µM (inactive) | > 100 µM (inactive) | > 100 µM (inactive) | > 100 µM (inactive) | 25.1 µM (inactive) | > 41 µM (inactive) | > 78.9 µM (inactive) | > 100 µM (inactive) | 22.3 µM (inactive) | > 100 µM (inactive) | > 86.1 µM (inactive) | > 100 µM (inactive) | 26.4 µM (inactive) | > 44.6 µM (inactive) | > 100 µM (inactive) | 14.2 µM (inactive) |
| CC1=NN(C(=O)Nc2ccc(Cl)cc2)C(=O)C2CCC(=O)N12 (stereo not given) | – | > 100 µM (inactive) | > 100 µM (inactive) | 87.3 µM (inactive) | – | 4.13 µM (inactive) | 47.3 µM (inactive) | 45.3 µM (inactive) | > 100 µM (inactive) | > 100 µM (inactive) | – | – | > 100 µM (inactive) | 93.3 µM (inactive) | 2.2 µM (inactive) | 48.3 µM (inactive) | > 100 µM (inactive) |
| CC(=O)OC1C2CCC1C1C2C2(Cl)C(Cl)=C(Cl)C1(Cl)C2(Cl)Cl (stereo not given) | 12.3 µM (inactive) | 13.9 µM (inactive) | 18.2 µM (inactive) | 13 µM (inactive) | 12.6 µM (inactive) | 15.2 µM (inactive) | 12.2 µM (inactive) | 17.7 µM (inactive) | 15.1 µM (inactive) | – | 11.1 µM (inactive) | 12.3 µM (inactive) | 16.4 µM (inactive) | 6.05 µM (inactive) | 12.4 µM (inactive) | 11.3 µM (inactive) | 14.5 µM (inactive) |
| Cc1ccc(CCNC(=S)SCC(NC(=O)CCC(N)C(=O)O)C(=O)NCC(=O)O)cc1 (stereo not given) | 0.327 µM (active) | 2.03 µM (inactive) | 2.75 µM (inactive) | 1.73 µM (inactive) | 2.01 µM (inactive) | 0.388 µM (active) | 0.414 µM (active) | 2.7 µM (inactive) | 0.718 µM (active) | 0.442 µM (active) | 2.51 µM (inactive) | 1.46 µM (inactive) | 2.11 µM (inactive) | 0.288 µM (active) | 1.41 µM (inactive) | 2.81 µM (inactive) | 0.767 µM (active) |
| Cc1cc2c(cc1C)[n+]([O-])c(C(=O)CC(=O)C(=O)Nc1c(C(C)C)cccc1C(C)C)c(C)[n+]2[O-] | > 100 µM (inactive) | > 100 µM (inactive) | > 100 µM (inactive) | > 100 µM (inactive) | > 100 µM (inactive) | > 100 µM (inactive) | > 100 µM (inactive) | > 100 µM (inactive) | > 100 µM (inactive) | > 100 µM (inactive) | > 100 µM (inactive) | > 100 µM (inactive) | > 100 µM (inactive) | > 100 µM (inactive) | > 100 µM (inactive) | > 100 µM (inactive) | > 100 µM (inactive) |
| CCOP(=O)(OCC)C1CCCCOC1=O (stereo not given) | – | > 100 µM (inactive) | > 100 µM (inactive) | > 100 µM (inactive) | > 100 µM (inactive) | 19.9 µM (inactive) | > 100 µM (inactive) | > 100 µM (inactive) | > 100 µM (inactive) | 76.7 µM (inactive) | – | > 100 µM (inactive) | > 100 µM (inactive) | > 100 µM (inactive) | > 100 µM (inactive) | > 100 µM (inactive) | > 100 µM (inactive) |
| O=C(Cn1ccnc1[N+](=O)[O-])NCc1ccc(F)cc1 | > 100 µM (inactive) | > 100 µM (inactive) | > 100 µM (inactive) | > 100 µM (inactive) | > 100 µM (inactive) | > 100 µM (inactive) | > 100 µM (inactive) | > 100 µM (inactive) | > 100 µM (inactive) | > 100 µM (inactive) | > 100 µM (inactive) | > 100 µM (inactive) | > 100 µM (inactive) | > 100 µM (inactive) | > 100 µM (inactive) | > 100 µM (inactive) | > 100 µM (inactive) |
| Nc1c(C(=O)Nc2ccccc2)[n+]([O-])c2ccccc2[n+]1[O-] | 2.09 µM (inactive) | 16.9 µM (inactive) | 17.8 µM (inactive) | 14.3 µM (inactive) | > 10 µM (inactive) | 12.3 µM (inactive) | 20.6 µM (inactive) | 25.1 µM (inactive) | – | 19.1 µM (inactive) | 22.5 µM (inactive) | 16.6 µM (inactive) | 18.4 µM (inactive) | 20.6 µM (inactive) | 10.5 µM (inactive) | 20.9 µM (inactive) | 15.2 µM (inactive) |
| CN(C)CC1CC/C(=C\c2ccc(Cl)c(Cl)c2)C1=O (stereo not given) | 6.38 µM (inactive) | 30.2 µM (inactive) | 39.3 µM (inactive) | 45.7 µM (inactive) | > 62.5 µM (inactive) | 13.5 µM (inactive) | 28.8 µM (inactive) | 31.6 µM (inactive) | > 45.4 µM (inactive) | 2.49 µM (inactive) | > 55.2 µM (inactive) | 25.5 µM (inactive) | > 50.4 µM (inactive) | 1.95 µM (inactive) | 17.6 µM (inactive) | 48.6 µM (inactive) | 24.3 µM (inactive) |
